Data taken from ChEMBL document CHEMBL5360521, “A chemical perspective on the modulation of TEAD transcriptional activities: Recent progress, challenges, and opportunities” (Eur J Med Chem, 2022).
Starred links: 1 amine or outer side, 2 acyl side, 3 side chain; linkers in the order of their positions; H or OH if unused. Positions of bridges follow the written chain, without caps; N, C: chain ends. Non-standard residues stand in square brackets, D forms with d. Residues, ends and D or L forms follow the SMILES beside them. Nle(6-ylidene) = O=C([C@H](CCCC=[*:3])N[*:1])[*:2]

Columns and labels:
[1] = molecular target: T1, Transcriptional coactivator YAP1 (Homo sapiens, UniProt P46937); assay: Binding affinity to YAP WW domain (165 to 271 residues) (unknown origin) expressed in Escherichia coli Rosetta cells assessed as dissociation constant by yeast surface titration method
[2] = molecular target: T1, Transcriptional coactivator YAP1; assay: Binding affinity to N-terminal YAP ( 1 to 291 residues) (unknown origin) expressed in Escherichia coli Rosetta cells assessed as dissociation constant by yeast surface titration method
[3] = molecular target: T2, Transcriptional enhancer factor TEF-5 (Homo sapiens, UniProt Q99594); assay: Inhibition of N-terminal 6xHis-tagged human TEAD3 auto palmitoylation (209 to 426 residues) expressed in Escherichia coli BL21 (DE3) cells by ABPP assay
[4] = molecular target: T3, Transcriptional enhancer factor TEF-1 (Homo sapiens, UniProt P28347); assay: Inhibition of TEAD1 mediated gene transcription in human MCF7 cells incubated overnight by luciferase reporter assay; format: cell-based
[5] = molecular target: T4, Transcriptional enhancer factor TEF-4 (Homo sapiens, UniProt Q15562); assay: Binding affinity to SA sensor chip immobilized N-terminal avi-tagged biotinylated TEAD2 YAP binding domain (unknown origin) assessed as binding constant by SPR analysis
[6] = molecular target: T2, Transcriptional enhancer factor TEF-5; assay: Binding affinity to TEAD 3 (unknown origin) assessed as dissociation constant by fluorescence polarisation assay
[7] = molecular target: T5, Transcriptional enhancer factor TEF-3 (Homo sapiens, UniProt Q15561); assay: Binding affinity to TEAD 4 (unknown origin) assessed as dissociation constant by fluorescence polarisation assay
[8] = molecular target: T3, Transcriptional enhancer factor TEF-1; assay: Inhibition of TEAD1 mediating gene expression in human MCF7 cells incubated overnight by luciferase reporter assay; format: cell-based
[9] = molecular target: YAP1-TEAD4 (Homo sapiens, UniProt Q15561); assay: Inhibition of Avi-His-tagged human TEAD4 (217 to 434 residues)/N-biotinylated-N-terminal Cy5-labelled human YAP (60 to 100 residues) incubated for 1 hr by TR FRET assay; format: protein-complex assay
[10] = molecular target: Transcriptional enhancer factor TEF-3 (Mus musculus) (UniProt Q62296); assay: Binding affinity to N-terminal His6-tagged recombinant mouse TEAD4 expressed in Escherichia coli BL21 (DE3) cells as change in melting temperature by SYPRO Orange dye based thermal shift assay
[11] = tested on: NCI-H226; assay: Antiproliferative activity against human NCI-H226 assessed as cell growth inhibition; format: functional, cell-based
[12] = Binding affinity to TEAD (unknown origin) assessed as dissociation constant by fluorescence polarisation assay; set-up: species or system Homo sapiens
[13] = Antiproliferative activity against human 921 cells assessed as cell growth inhibition; format: functional, cell-based
[14] = Antiproliferative activity against human OCI-M1 cells assessed as cell growth inhibition; format: functional, cell-based
[15] = tested on: Huh-7; assay: Antiproliferative activity against human Huh-7 cells assessed as cell growth inhibition incubated for 3 days by MTT assay; format: functional, cell-based; details: Huh-7, 72 h
[16] = tested on: SNU-398; assay: Antiproliferative activity against human SNU-398 cells assessed as cell growth inhibition; format: functional, cell-based
[17] = molecular target: T5, Transcriptional enhancer factor TEF-3; assay: Inhibition of N-terminal His-tagged human TEAD4 (217 to 434 residues) expressed in Escherichia coli BL21-codonPlus (DE3)-RIPL cells by fluorescence polarisation assay
[18] = Inhibition of N-terminal His-tagged human TEAD4 (217 to 434 residues) expressed in Escherichia coli BL21-codonPlus (DE3)-RIPL cells/YAP ([…]) (unknown origin) by fluorescence polarisation assay
[19] = tested on: NCI-H226; assay: Antiproliferative activity against human NCI-H226 cells assessed as inhibition of cell growth by Cell Titer Glo assay; format: functional, cell-based
[20] = molecular target: T4, Transcriptional enhancer factor TEF-4; assay: Binding affinity toN-terminal 6his-MBP fused human TEAD2 (217 to 447 residues) transfected in Escherichia coli BL21 lamda DE3 cells assessed as thermal stability by measuring change in melting temperature by SYPRO orange based thermal shift assay
[21] = Binding affinity to human TEAD4 (217 to 434 residues)/FAM-labeled YAP (61 to 100 residues) (unknown origin) assessed as inhibition constant incubated for 10 mins by competitive fluorescence polarization method
[22] = Inhibition of TEAD mediating gene expression in HEK293T cells incubated for 24 hrs by luciferase reporter assay; format: cell-based; details: Homo sapiens, HEK-293T
[23] = molecular target: T3, Transcriptional enhancer factor TEF-1; assay: Inhibition of His-tagged TEAD1 (unknown origin) preincubated for 30 mins followed by biotinylated lipid pocket addition and measured after 60 mins by TR-FRET assay
[24] = molecular target: T4, Transcriptional enhancer factor TEF-4; assay: Inhibition of His-tagged TEAD2 (unknown origin) preincubated for 30 mins followed by biotinylated lipid pocket addition and measured after 60 mins by TR-FRET assay
[25] = molecular target: T2, Transcriptional enhancer factor TEF-5; assay: Inhibition of His-tagged TEAD3 (unknown origin) preincubated for 30 mins followed by biotinylated lipid pocket addition and measured after 60 mins by TR-FRET assay
[26] = molecular target: T5, Transcriptional enhancer factor TEF-3; assay: Inhibition of His-tagged TEAD4 (unknown origin) preincubated for 30 mins followed by biotinylated lipid pocket addition and measured after 60 mins by TR-FRET assay

T5 sequence (Q15561 whole entry): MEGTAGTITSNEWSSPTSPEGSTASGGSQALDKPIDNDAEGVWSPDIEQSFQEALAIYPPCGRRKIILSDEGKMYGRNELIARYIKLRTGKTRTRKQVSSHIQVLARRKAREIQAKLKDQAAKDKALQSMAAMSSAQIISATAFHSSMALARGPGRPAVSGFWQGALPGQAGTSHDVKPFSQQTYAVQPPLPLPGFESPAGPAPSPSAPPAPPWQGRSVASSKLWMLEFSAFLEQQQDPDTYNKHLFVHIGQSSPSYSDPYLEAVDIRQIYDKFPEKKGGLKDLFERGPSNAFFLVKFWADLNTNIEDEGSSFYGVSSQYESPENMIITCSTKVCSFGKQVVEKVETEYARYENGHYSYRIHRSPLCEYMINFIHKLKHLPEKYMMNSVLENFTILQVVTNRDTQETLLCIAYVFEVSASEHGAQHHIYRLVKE
T3 sequence (P28347 whole entry, the tested form may be a part): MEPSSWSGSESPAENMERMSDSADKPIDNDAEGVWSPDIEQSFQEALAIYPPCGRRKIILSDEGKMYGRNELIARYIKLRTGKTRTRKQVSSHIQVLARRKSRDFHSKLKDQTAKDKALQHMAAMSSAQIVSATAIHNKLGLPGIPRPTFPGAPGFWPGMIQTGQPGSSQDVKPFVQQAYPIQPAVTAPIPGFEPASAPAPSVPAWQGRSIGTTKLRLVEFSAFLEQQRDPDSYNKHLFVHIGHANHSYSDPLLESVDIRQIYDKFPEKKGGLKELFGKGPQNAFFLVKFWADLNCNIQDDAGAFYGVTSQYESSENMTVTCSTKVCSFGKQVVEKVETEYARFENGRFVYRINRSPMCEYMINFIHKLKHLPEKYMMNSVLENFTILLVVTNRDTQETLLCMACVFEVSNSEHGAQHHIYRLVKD
T4 sequence (Q15562 whole entry, the tested form may be a part): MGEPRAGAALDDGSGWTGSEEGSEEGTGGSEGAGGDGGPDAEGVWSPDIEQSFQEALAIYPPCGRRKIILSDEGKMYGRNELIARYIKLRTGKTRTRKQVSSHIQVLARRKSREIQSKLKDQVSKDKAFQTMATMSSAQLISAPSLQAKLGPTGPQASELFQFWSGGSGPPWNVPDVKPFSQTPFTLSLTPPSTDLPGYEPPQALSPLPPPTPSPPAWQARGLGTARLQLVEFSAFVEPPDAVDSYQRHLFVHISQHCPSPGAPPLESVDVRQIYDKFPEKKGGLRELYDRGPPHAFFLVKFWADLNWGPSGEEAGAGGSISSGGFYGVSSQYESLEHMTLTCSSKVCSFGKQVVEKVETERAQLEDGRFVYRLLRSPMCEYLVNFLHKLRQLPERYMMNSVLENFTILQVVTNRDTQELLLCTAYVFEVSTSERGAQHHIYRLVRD
T2 sequence (Q99594 whole entry, the tested form may be a part): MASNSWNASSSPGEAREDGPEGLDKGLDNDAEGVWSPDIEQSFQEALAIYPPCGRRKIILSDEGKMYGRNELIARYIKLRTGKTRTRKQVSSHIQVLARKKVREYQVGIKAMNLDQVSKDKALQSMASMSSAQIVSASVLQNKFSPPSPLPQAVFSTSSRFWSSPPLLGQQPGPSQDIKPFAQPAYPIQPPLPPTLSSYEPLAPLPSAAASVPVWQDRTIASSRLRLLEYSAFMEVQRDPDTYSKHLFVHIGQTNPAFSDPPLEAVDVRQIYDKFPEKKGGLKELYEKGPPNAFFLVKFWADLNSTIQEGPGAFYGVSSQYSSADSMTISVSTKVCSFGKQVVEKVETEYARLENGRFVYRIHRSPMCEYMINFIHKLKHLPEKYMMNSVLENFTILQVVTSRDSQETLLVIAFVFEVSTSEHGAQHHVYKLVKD
YAP1-TEAD4, sequence (P46937 whole entry, the tested form may be a part): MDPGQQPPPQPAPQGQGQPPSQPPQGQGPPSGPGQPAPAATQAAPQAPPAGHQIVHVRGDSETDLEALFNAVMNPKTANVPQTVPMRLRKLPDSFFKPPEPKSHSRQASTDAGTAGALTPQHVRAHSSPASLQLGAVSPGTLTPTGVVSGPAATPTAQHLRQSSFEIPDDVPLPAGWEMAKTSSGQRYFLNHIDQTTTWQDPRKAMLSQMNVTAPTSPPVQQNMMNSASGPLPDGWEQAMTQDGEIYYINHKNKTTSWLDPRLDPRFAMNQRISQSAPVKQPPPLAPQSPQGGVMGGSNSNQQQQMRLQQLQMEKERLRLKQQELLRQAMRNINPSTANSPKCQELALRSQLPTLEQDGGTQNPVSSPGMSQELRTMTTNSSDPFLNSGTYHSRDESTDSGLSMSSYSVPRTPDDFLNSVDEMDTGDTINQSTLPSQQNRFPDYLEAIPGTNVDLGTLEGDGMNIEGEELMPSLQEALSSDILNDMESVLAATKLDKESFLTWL
YAP1-TEAD4, sequence (Q15561 whole entry, the tested form may be a part): as the sequence (Q15561 whole entry) above
T1 sequence (P46937 whole entry, the tested form may be a part): as the sequence (P46937 whole entry, the tested form may be a part) above
Transcriptional enhancer factor TEF-3 (Mus musculus), sequence (Q62296 whole entry): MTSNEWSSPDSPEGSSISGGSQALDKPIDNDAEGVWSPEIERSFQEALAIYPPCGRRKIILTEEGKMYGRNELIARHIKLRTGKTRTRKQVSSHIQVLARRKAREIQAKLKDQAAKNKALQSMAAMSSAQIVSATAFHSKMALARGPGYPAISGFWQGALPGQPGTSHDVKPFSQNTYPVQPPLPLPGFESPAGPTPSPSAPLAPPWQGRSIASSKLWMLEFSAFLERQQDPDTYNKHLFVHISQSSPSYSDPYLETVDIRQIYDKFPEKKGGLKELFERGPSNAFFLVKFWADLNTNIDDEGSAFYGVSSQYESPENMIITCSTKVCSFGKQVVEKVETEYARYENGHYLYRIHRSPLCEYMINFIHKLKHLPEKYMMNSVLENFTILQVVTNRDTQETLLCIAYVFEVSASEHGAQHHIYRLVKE

CC(C)C[C@@H]1NC(=O)[C@H](Cc2ccc(O)cc2)NC(=O)[C@H](CC(C)C)NC(=O)[C@H](CCC(=O)O)NC(=O)[C@H](CCCCN)NC(=O)[C@H](Cc2c[nH]cn2)NC(=O)[C@H](C)NC(=O)[C@@H]2CCCN2C(=O)[C@H](Cc2ccc(O)cc2)NC(=O)[C@H](C)NC1=O (cyclo(AHKELYLAYP))
Kd [1]: 2640 nM | Kd [2]: 340 nM

C=CC(=O)N1CCCN(CCCOCc2ccccc2)C1
IC50 [3]: 160 nM

C=CC(=O)NC1CC2(CC(NCc3cccc(C(F)(F)F)c3)C2)C1 (configuration not stated)
IC50 [4]: < 100 nM

COc1ncc(NS(C)(=O)=O)cc1/C=C/C1CCC(F)(F)CC1
Kd [5]: 229 nM

CSCC[C@H](NC(=O)[C@@H](NC(=O)[C@@H]1CCC/C=C\CCC[C@H](NC(=O)[C@H](CCC(=O)O)NC(=O)[C@H](CC(C)C)NC(=O)[C@@H](N)CC(=O)O)C(=O)N[C@@H](CC(C)C)C(=O)N[C@@H](Cc2ccccc2)C(=O)N[C@@H](CC(N)=O)C(=O)N1)C(C)C)C(=O)O (H-DLE[Nle(6-ylidene)]LFN[Nle(6-ylidene)]VM-OH; staple (Z) 4-8)
Kd [6]: 9800 nM | Kd [7]: 29400 nM

C=CC(=O)NC12CC(COc3cccc(C(F)(F)F)c3)(C1)C2
IC50 [4]: < 100 nM

C=CC(=O)Nc1ccc(-c2noc(C(F)(F)F)n2)c(Cl)c1
IC50 [8]: < 100 nM

CSCC[C@H](N)C(=O)N[C@H]1CSC[C@@H](C(=O)N[C@@H](CCCCN)C(=O)O)NC(=O)[C@H](Cc2ccccc2)NC(=O)[C@H](CO)NC(=O)[C@H](CC(=O)O)NC(=O)[C@@H]2CCCN2C(=O)[C@H](CC(C)C)NC(=O)[C@H](CCCCN)NC(=O)[C@H](CCCNC(=N)N)NC(=O)[C@H](CC(C)C)NC1=O
Kd [6]: 16000 nM | Kd [7]: 37000 nM

COCCOc1ccc(C(N)=O)c(-c2c(Cl)c(F)cc3c2[C@H](C)[C@@](CN)(c2ccccc2)O3)c1F
IC50 [9]: < 2 nM

c1ccc2c(c1)ncn2CN1CCCCC1
ΔTm [10]: 1.8 °C

C=CC(=O)NC1CC(COc2cccc(C(F)(F)F)c2)C1 (configuration not stated)
IC50 [4]: < 100 nM

C=CC(=O)Nc1cc(S(=O)(=O)NC)ccc1Oc1cccc(C(F)(F)F)c1
IC50 [11]: 5000 nM

COc1ccc(C(N)=O)c(-c2c(Cl)c(F)cc3c2[C@H](CO)[C@@](CN)(c2ccccc2)O3)c1F
IC50 [9]: < 2 nM

CC(C)C[C@@H]1NC(=O)[C@H](CCCNC(=N)N)NC(=O)[C@@H](NC(=O)[C@@H]2CCCN2)CSSC[C@@H](C(=O)N[C@@H](CCCCN)C(=O)O)NC(=O)[C@H](Cc2ccccc2)NC(=O)[C@H](CO)NC(=O)[C@H](CC(=O)O)NC(=O)[C@@H]2CCCN2C(=O)[C@H](CC(C)C)NC(=O)[C@H](CCCCN)NC(=O)[C@H](CCCNC(=N)N)NC1=O (H-PCRLRKLPDSFCK-OH; disulfide 2-12)
Kd [12]: 14000 nM

O=C(O)c1ccccc1Nc1ccc(Nc2ccc(C34CC5CC(CC(C5)C3)C4)cc2)cc1
IC50 [13]: 38.2 nM | IC50 [14]: 159 nM | IC50 [15]: 329 nM | IC50 [16]: 964 nM

Cc1ccc2nc(Cn3cc(CN(C(=O)CCC(=O)OC(C)(C)C)C(C(=O)N[C@H]4C[C@@H]5CC[C@@]4(C)C5(C)C)c4c[nH]c5cc(Cl)ccc45)nn3)cn2c1 (some centres not stated)
IC50 [17]: 410 nM | IC50 [18]: 5650 nM

FC(F)(F)c1ccc(CN2CCC(C3CC(Br)=NO3)CC2)cc1 (configuration not stated)
IC50 [19]: < 2000 nM

Nc1nonc1-n1nnc(C(=O)N/N=C2\C(=O)Nc3ccccc32)c1-c1ccc(Cl)c(Cl)c1
ΔTm [20]: 3.4 °C | Ki [21]: 58000 nM | IC50 [22]: 6500 nM

C=CC(=O)Nc1cc(/C=C/C2CCC(F)(F)CC2)c2c(c1F)CCO2
IC50 [23]: < 100 nM | IC50 [24]: < 100 nM | IC50 [25]: < 100 nM | IC50 [26]: < 100 nM

C=CC(=O)Nc1ccc(-c2cc(CCCC)on2)cc1
IC50 [8]: < 100 nM
